For one experiment, the system named is MCL1. Kind of experiment: Immunoblot of MCL1 modulation in MOLM-13. Format: cell-based, human. Particulars: MOLM-13, serum starved, 20 h treatment. The protocol:
Fig. 6 Immunoblot analysis for MCL1 modulation in MOLM-13 FLT3-ITD cell line (representative of two independent blots). Cells were serum starved and treated for 20 h with ARQ 531 alone or in combination with venetoclax. […] GAPDH used as loading control. Band densitometry is done using ImageJ and quantified relative to GAPDH and DMSO treatment (a). In vitro analysis for additive or synergistic activity for ARQ 531 and venetoclax combination. Representative of three MTS proliferation assays. The MOLM-13 cell line was treated with increasing doses of ARQ 531 or venetoclax single agents or a combination of both for 72 h. Three biological replicates were analyzed using Combenefit software implementing the mathematical models for Highest Single Agent (HSA), Loewe, and Bliss (b). […]

The subject of experiment [1] is primary AML patient blasts. Kind of experiment: Colony-Forming Unit-Granulocyte and Macrophage (CFU-GM) assay. The experiment is classed as cell-based, human. The settings on record: 3 µM, colonies counted after 14 days. The protocol: Primary AML patient samples were treated and plated at 5000–10,000 cells in 1.1 ml methylcellulose supplemented with recombinant human stem cell factor, interleukin 3, granulocyte colony-stimulating factor, and granulocyte-macrophage colony-stimulating factor (MethoCult™, […] Technologies, Vancouver, Canada) per dish in duplicates. Colonies were counted after 14 days when using primary patient samples.
MTS proliferation assay using a human stroma co-culture assay. […] FLT3 wild-type (WT) samples (red) and FLT3-ITD (black). Colony-Forming Unit-Granulocyte and Macrophage (CFU-GM) assay. […] Number of colonies were counted after 14 days (c)

The target in the next experiment is FLT3-ITD (Homo sapiens, UniProt P36888, ITD). Kind of experiment: Biochemical assay of recombinant kinases, FLT3-ITD. The settings on record: recombinant kinase domain, 10 μmol/L ATP. The protocol: Biochemical inhibition of FLT3-WT and FLT3-ITD fusion was measured using recombinant protein constructs of kinase domains (Reaction Biology).
FLT3-ITD, sequence (P36888 564-993, stated change not applied): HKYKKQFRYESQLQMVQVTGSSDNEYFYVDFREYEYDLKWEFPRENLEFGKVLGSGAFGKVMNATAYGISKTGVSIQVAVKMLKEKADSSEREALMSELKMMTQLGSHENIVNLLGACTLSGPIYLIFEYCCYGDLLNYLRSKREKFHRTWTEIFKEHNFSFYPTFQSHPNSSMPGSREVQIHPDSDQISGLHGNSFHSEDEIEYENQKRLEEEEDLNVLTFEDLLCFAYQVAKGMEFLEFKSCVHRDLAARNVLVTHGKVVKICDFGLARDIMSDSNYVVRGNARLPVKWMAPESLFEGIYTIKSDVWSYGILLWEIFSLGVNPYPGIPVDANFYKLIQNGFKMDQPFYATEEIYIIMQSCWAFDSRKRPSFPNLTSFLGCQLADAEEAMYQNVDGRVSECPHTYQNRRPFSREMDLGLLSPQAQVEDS
The subject of experiment [2] is phosphorylated SYK (tyrosine 525/526). Kind of experiment: Immunoblot of phospho-SYK Tyr525/526. The experiment is classed as cell-based, human. Particulars: MOLM-13, MV4-11, and OCI-AML3, 10-min treatment. As to the method:
Cell lines were serum starved overnight followed by a 10-min treatment. Cells were washed in ice-cold PBS then lysed in 1X Cell Lysis Buffer (CST) supplemented with proteinase and phosphatase inhibitors cocktail (Roche). Pierce BCA Protein Assay was used to quantify the protein lysates (Thermo Fisher Scientific, Waltham, MA). For Immunoblotting, 15–25 μg of protein lysate was prepared in 2X or 4X Laemmeli’s sample buffer (Bio-Rad Laboratories, Hercules, CA) and heated for 5 min at 100 °C. Samples were separated on 8% sodium dodecyl sulfate polyacrylamide gel and transferred onto nitrocellulose membrane (Bio-Rad Laboratories, Hercules, CA). The membranes were blocked for 1 h in Blocker BLOTTO Blocking Buffer (Thermo Fisher Scientific, Waltham, MA) or 5% non-fat milk followed by overnight incubation at 4 °C with primary antibody followed by HRP-conjugated secondary antibodies and visualized with chemiluminescent Pierce ECL Substrate (Thermo Fisher Scientific, Waltham, MA) on X-ray films.
Fig. 3 ARQ 531 modulates AML pro-survival kinases. Immunoblot analysis for MOLM-13, MV4-11, and OCI-AML3 AML cell lines (representative of 2-3 independent blots). […] Twenty to 25 μg of total protein lysate was loaded per lane. GAPDH, HSP90, or β-Actin were used as loading controls. a, b Modulation of phosphorylated SFK and downstream targets in FLT3-ITD cell lines MOLM-13 and MV-11, respectively. c, d Modulation of phosphorylated SYK and BTK in all three cell lines

The next experiment has as its system Ba/F3 FLT3-ITD/F691L. Kind of experiment: MTT proliferation assay 72 h, Ba/F3 FLT3-ITD/F691L. The experiment is classed as cell-based, murine. The settings on record: Mus musculus, BaF3, read-out: Estimated absolute µM IC50 and 95% CI.

SMILES strings stand for the structures.

Method for Ba/F3 FLT3-ITD/F691L: For the MOLM-13 resistant and the Ba/F3-FLT3-ITD/TKD cell lines, cells were treated for 72 h and cell viability was evaluated using MTT assay (Roche Diagnostics. Mannheim. Germany) according to the manufacturer’s instructions.

Usually IC50 stands for the concentration at which inhibition is half-maximal. As to `O=C(c1ccc(Oc2ccccc2)cc1Cl)c1c[nH]c2ncnc(N[C@@H]3CC[C@@H](CO)OC3)c12` [ARQ 531], the MCL1 protein level result in the experiment with MCL1 is listed as “MCL1 downregulation”. Besides, in experiment [1], the “Estimated ratio of colony formation vs. DMSO” value is 0.45. The IC50 at FLT3-ITD is 0.33 µM; in the experiment with Ba/F3 FLT3-ITD/F691L, 7.12 µM. The “effect on phosphorylated SYK (tyrosine 525/526)” value in experiment [2] is reported as “inhibited the phosphorylated levels of SYK”.

Values taken from PMC6988309, “Preclinical efficacy for a novel tyrosine kinase inhibitor, ArQule 531 against acute myeloid leukemia” (Journal of Hematology & Oncology, 2020).
